Measured values: patent US20090105301A1, “9A-SUBSTITUTED AZALIDES FOR THE TREATMENT OF MALARIA” (priority 2006, published 2009)
In brackets after ≈: the same amount, converted by molar mass. Structures can show the parent of a compound that is named as a salt.

What was measured:
Format in all cases: cell-based, Plasmodium falciparum
[1] = system: P. falciparum D6 (CDC/Sierra Leone I, D-6); experiment: In vitro screening protocol I, [3H]-hypoxanthine incorporation, D6; details: In vitro screening protocol I, P. falciparum D6; for IC50: Plasmodium falciparum, read-out: IC50 D6
Excerpt: (§1) Agents Chemother. 27 (4) (1985) 525-530). The system was limited to the assessment of the intrinsic activity against the erythrocytic asexual life cycle (blood schizontocides). Two Plasmodium falciparum clones from CDC/Indochina III (W-2) and CDC/Sierra Leone I (D-6) (Oduola A M, Weatherly N F, Bowdre J H, Desjardins R E. Plasmodium falciparum: cloning by single-erythrocyte micromanipulation and heterogeneity in vitro. Exp Parasitol. 66 (1) (1988) 86-95) were used for all assays. TM91C235, a multiple drug resistant isolate from Thailand (Antimicrob. Agents Chemother. 46 (8) (2002) 2627 and Antimicrob. Agents Chemother. 43 (3) (1999) 598-602), was used for the prescreening assay. W-2 is resistant to chloroquine, quinine, and pyrimethamine and susceptible to mefloquine. D-6 tends to be more resistant to mefloquine and susceptible to chloroquine, quinine, and pyrimethamine. All documents cited in this paragraph are incorporated by reference in their entirety.
(§2) All parasites were maintained in continuous long term cultures in RPMI-1640 medium supplemented with 6% washed human A positive (A+)(erythrocytes, 25 mM Hepes, […], and 10% heat inactivated A+ human plasma or ALBUMAX® (lipid-rich bovine serum albumin; Invitrogen, Carlsbad, Calif.). All cultures and assays were conducted at 37° C. under an atmosphere of 5% CO2 and 5% O2, with a balance of N2.
(§3) The prescreening assay uses TM91C235 diluted at a 0.4% parasitemia in a 1% hematocrit in folic acid free and p-aminobenzoic acid free media RPMI-1640 and ALBUMAX®. […] The compound is further diluted in folate free (FF) culture medium with ALBUMAX® for the first initial starting concentration. The rest of the stock drug solution was kept at −70° C. The isolate was preexposed, in duplicate, at three concentrations (25,000 ng/ml, 2,500 ng/ml, and […]) of the test compound for 48 hr in a 96-well microtiter plate (MTP) using the BIOMEK® 2000 automated laboratory workstation. Each MTP contains chloroquine as control to assess the relative activity of the compound and to monitor the response of TM91C235.
(§4) After the preincubation, [^3H]-hypoxanthine was added to each well of the MTP. (The assay relies on the incorporation of radiolabeled hypoxanthine by the parasites, which indicates reproduction, and inhibition of isotope incorporation was attributed to activity of known or candidate antimalarial drugs). After 72 hours of total incubation time, the MTP were frozen to lyse the erythrocytes and parasites. The parasite DNA was recovered by harvesting the lysate onto glass-fiber filter plates using a Packard FilterMate™ Cell Harvester. The radioactivity was counted on a Packard TopCount™ microplate scintillation counter.
(§5) The serial dilution assay was conducted using the same assay conditions and stock solution of the compound used for the preliminary screen, described above. Both the D-6 and the W-2 clones were used. The compounds were diluted two-fold over 11 different concentration ranges with a starting concentration that was based on the preliminary screen. For each drug, the concentration response profile was determined and 50% inhibitory concentrations (IC50) were determined by using a non-linear, logistic dose response analysis program. […] For each assay, the IC50 for each clone was determined against the known antimalarials chloroquine and mefloquine. These control values established the compound's relative parasite susceptibility profile compared to known antimalarials. […]

P. falciparum TM91C235 = experiment: In vitro screening protocol I, [3H]-hypoxanthine incorporation, TM91C235; details: In vitro screening protocol I, P. falciparum TM91C235; for IC50: Plasmodium falciparum, read-out: IC50 TM91C235
Excerpt: as §1, §2, §3, §4, §5

[2] = system: P. falciparum W2 (CDC/Indochina III, W-2); experiment: In vitro screening protocol I, [3H]-hypoxanthine incorporation, W2; details: In vitro screening protocol I, P. falciparum W2; for IC50: Plasmodium falciparum, read-out: IC50 W2
Excerpt: as §1, §2, §3, §4, §5

| IC50 D6 [1] | IC50 TM91C235 (P. falciparum TM91C235) | IC50 W2 [2] | IC50 [1] [µg/mL] | IC50 (P. falciparum TM91C235) [µg/mL] | IC50 [2] [µg/mL] | SMILES |
| --- | --- | --- | --- | --- | --- | --- |
| – | – | – | 0.2 to 1 | < 0.1 | 0.1 to 0.2 | CC[C@H]1OC(=O)[C@H](C)[C@@H](O[C@H]2C[C@@](C)(OC)[C@@H](O)[C@H](C)O2)[C@H](C)[C@@H](O[C@@H]2O[C@H](C)C[C@H](N(C)C)[C@H]2O)[C@](C)(O)C[C@@H](C)CN(CCCNC(=O)CCCCc2ccccc2)[C@H](C)[C@@H](O)[C@]1(C)O [Example 31, 9a-{3-[(5-Phenylpentanoyl)amino]propyl}-9a-aza-9-deoxo-9-dihydro-9a-homoerythromycin A Formiate Salt] |
| – | – | – | 0.2 to 1 | < 0.1 | 0.2 to 1 | CC[C@H]1OC(=O)[C@H](C)[C@@H](O[C@H]2C[C@@](C)(OC)[C@@H](O)[C@H](C)O2)[C@H](C)[C@@H](O[C@@H]2O[C@H](C)C[C@H](N(C)C)[C@H]2O)[C@](C)(O)C[C@@H](C)CN(CCCNC(=O)CCc2ccccc2)[C@H](C)[C@@H](O)[C@]1(C)O [Example 27, 9a-{3-[(3-Phenylpropanoyl)amino]propyl}-9a-aza-9-deoxo-9-dihydro-9a-homoerythromycin A Formiate Salt] |
| – | – | – | 0.1 to 0.2 (≈ 0.107 to 0.213 µM) | < 0.1 | < 0.1 | CC[C@H]1OC(=O)[C@H](C)[C@@H](O[C@H]2C[C@@](C)(OC)[C@@H](O)[C@H](C)O2)[C@H](C)[C@@H](O[C@@H]2O[C@H](C)C[C@H](N(C)C)[C@H]2O)[C@](C)(O)C[C@@H](C)CN(CCC(=O)NCCCCc2ccccc2)[C@H](C)[C@@H](O)[C@]1(C)O [Example 41] |
| – | – | – | 0.2 to 1 (≈ 0.22 to 1.1 µM) | 0.2 to 1 (≈ 0.22 to 1.1 µM) | 0.2 to 1 (≈ 0.22 to 1.1 µM) | CC[C@H]1OC(=O)[C@H](C)[C@@H](O[C@H]2C[C@@](C)(OC)[C@@H](O)[C@H](C)O2)[C@H](C)[C@@H](O[C@@H]2O[C@H](C)C[C@H](N(C)C)[C@H]2O)[C@](C)(O)C[C@@H](C)CN(CCC(=O)NCCc2ccccc2)[C@H](C)[C@@H](O)[C@]1(C)O [Example 39] |
| – | – | – | 0.2 to 1 | < 0.1 | 0.2 to 1 | CC[C@H]1OC(=O)[C@H](C)[C@@H](O[C@H]2C[C@@](C)(OC)[C@@H](O)[C@H](C)O2)[C@H](C)[C@@H](O[C@@H]2O[C@H](C)C[C@H](N(C)C)[C@H]2O)[C@](C)(O)C[C@@H](C)CN(CCCNC(=O)CCCc2ccccc2)[C@H](C)[C@@H](O)[C@]1(C)O [Example 28, 9a-{3-[(4-Phenylbutanoyl)amino]propyl}-9a-aza-9-deoxo-9-dihydro-9a-homoerythromycin A Formiate Salt] |

Continued, compound first:

| SMILES | IC50 D6 [1] | IC50 TM91C235 (P. falciparum TM91C235) | IC50 W2 [2] | IC50 [1] [µg/mL] | IC50 (P. falciparum TM91C235) [µg/mL] | IC50 [2] [µg/mL] |
| --- | --- | --- | --- | --- | --- | --- |
| CC[C@H]1OC(=O)[C@H](C)[C@@H](O[C@H]2C[C@@](C)(OC)[C@@H](O)[C@H](C)O2)[C@H](C)[C@@H](O[C@@H]2O[C@H](C)C[C@H](N(C)C)[C@H]2O)[C@](C)(O)C[C@@H](C)CN(CCCNC(=O)CCc2ccccc2)[C@H](C)[C@@H](O)[C@]1(C)O [Example 46, 9a-{3-[(3-Phenylpropanoyl)amino]propyl}-9a-aza-9-deoxo-9-dihydro-9a-homoerythromycin A] | C (200 < X ≦ 1000) | C (200 < X ≦ 1000) | C (200 < X ≦ 1000) | – | – | – |
| CC[C@H]1OC(=O)[C@H](C)[C@@H](O[C@H]2C[C@@](C)(OC)[C@@H](O)[C@H](C)O2)[C@H](C)[C@@H](O[C@@H]2O[C@H](C)C[C@H](N(C)C)[C@H]2O)[C@](C)(O)C[C@@H](C)CN(CCCNC(=O)Cc2cccc3ccccc23)[C@H](C)[C@@H](O)[C@]1(C)O [Example 29, 9a-{3-[(Naphtalen-1-yl-acetyl)amino]propyl}-9a-aza-9-deoxo-9-dihydro-9a-homoerythromycin A Formiate Salt] | – | – | – | 0.2 to 1 | < 0.1 | 0.2 to 1 |
| CC[C@H]1OC(=O)[C@H](C)[C@@H](O[C@H]2C[C@@](C)(OC)[C@@H](O)[C@H](C)O2)[C@H](C)[C@@H](O[C@@H]2O[C@H](C)C[C@H](N(C)C)[C@H]2O)[C@](C)(O)C[C@@H](C)CN(CCCN(C)Cc2cccc3ccccc23)[C@H](C)[C@@H](O)[C@]1(C)O [Example 17, 9a-{3-[Methyl-(naphtalen-1-yl-methyl)amino]propyl}-9-deoxo-9-dihydro-9a-aza-9a-homoerythromycin A] | – | – | – | 0.1 to 0.2 (≈ 0.106 to 0.211 µM) | < 0.1 | < 0.1 |
| CC[C@H]1OC(=O)[C@H](C)[C@@H](O[C@H]2C[C@@](C)(OC)[C@@H](O)[C@H](C)O2)[C@H](C)[C@@H](O[C@@H]2O[C@H](C)C[C@H](N(C)C)[C@H]2O)[C@](C)(O)C[C@@H](C)CN(CCCNCc2cnc3ccccc3c2)[C@H](C)[C@@H](O)[C@]1(C)O [Example 4, 9a-{3-[(Quinolin-3-yl-methyl)amino]propyl}-9-deoxo-9-dihydro-9a-aza-9a-homoerythromycin A] | – | – | – | 0.1 to 0.2 (≈ 0.107 to 0.214 µM) | < 0.1 | < 0.1 |
| CC[C@H]1OC(=O)[C@H](C)[C@@H](O[C@H]2C[C@@](C)(OC)[C@@H](O)[C@H](C)O2)[C@H](C)[C@@H](O[C@@H]2O[C@H](C)C[C@H](N(C)C)[C@H]2O)[C@](C)(O)C[C@@H](C)CN(CCCNC(=O)Cc2ccc3ccccc3c2)[C@H](C)[C@@H](O)[C@]1(C)O [Example 33, 9a-{3-[(Naphtalen-2-yl-acetyl)amino]propyl}-9a-aza-9-deoxo-9-dihydro-9a-homoerythromycin A Formiate Salt] | – | – | – | 0.1 to 0.2 | < 0.1 | 0.2 to 1 |
| CC[C@H]1OC(=O)[C@H](C)[C@@H](O)[C@H](C)[C@@H](O[C@@H]2O[C@H](C)C[C@H](N(C)C)[C@H]2O)[C@](C)(O)C[C@@H](C)CN(CCCNCc2ccc3ccccc3n2)[C@H](C)[C@@H](O)[C@]1(C)O [Example 2, 9a-{3-[(Quinolin-2-yl-methyl)amino]propyl}-3-O-decladinosyl-9-deoxo-9-dihydro-9a-aza-9a-homoerythromycin A] | – | – | – | 0.2 to 1 (≈ 0.258 to 1.29 µM) | 0.1 to 0.2 (≈ 0.129 to 0.258 µM) | 0.1 to 0.2 (≈ 0.129 to 0.258 µM) |
| CC[C@H]1OC(=O)[C@H](C)[C@@H](O[C@H]2C[C@@](C)(OC)[C@@H](O)[C@H](C)O2)[C@H](C)[C@@H](O[C@@H]2O[C@H](C)C[C@H](N(C)C)[C@H]2O)[C@](C)(O)C[C@@H](C)CN(CCCNc2ccnc3ccccc23)[C@H](C)[C@@H](O)[C@]1(C)O [Example 22, 9a-[3-(Quinolin-4-yl-amino)propyl]-9-deoxo-9-dihydro-9a-aza-9a-homoerythromycin A] | – | – | – | < 0.1 | < 0.1 | < 0.1 |
